Experiments:
[1] = system: bile salt export pump (Bsep); test: Hepatic FXR target gene expression, Bsep, in Mdr2^−/− mice; format: in vivo
Excerpt: Cholesterol 7 alpha-hydroxylase (cyp7a1) is the rate limiting enzyme in the classical biosynthetic pathways which convert cholesterol into bile acids. […] The bile salt export pump (Bsep) is a membrane protein that uses energy of ATP hydrolysis to actively transport bile acid salts.

[2] = system: small heterodimer partner (Shp); test: Ileal FXR target gene expression, Shp, in Mdr2^−/− mice; format: in vivo; details: Mdr2^−/− groups only (not FXR^−/−)
Excerpt: (§1) As expected, both INT-747 and INT-767 stimulated fibroblast growth factor 15 (Fgf15) and small heterodimer partner (Shp) gene expression in Mdr2^−/− groups only (FIGS. 7A and 7B).

[3] = system: fibroblast growth factor 15 (Fgf15); test: Ileal FXR target gene expression, Fgf15, in Mdr2^−/− mice; format: in vivo; details: Mdr2^−/− groups only (not FXR^−/−)
Excerpt: as §1

[4] = system: Cholesterol 7 alpha-hydroxylase (cyp7a1); test: Hepatic FXR target gene expression, Cyp7a1, in Mdr2^−/− mice; format: in vivo; details: Mdr2^−/− mice only (not FXR^−/−)
Excerpt: Cholesterol 7 alpha-hydroxylase (cyp7a1) is the rate limiting enzyme in the classical biosynthetic pathways which convert cholesterol into bile acids. Both INT-767 and INT-747 inhibited Cyp7a1 gene expression in Mdr2^−/− mice only (FIG. 8). The bile salt export pump (Bsep) is a membrane protein that uses energy of ATP hydrolysis to actively transport bile acid salts.

FXR^−/− mice = test: Hepatocarcinogenesis in FXR^−/− mice (tumors, LW/BW, ALT/AST, serum bile acids); details: for liver tumors found: diet 10 mg/kg for 15 months
Protocol: The effects of INT-747, INT-767, and control diet in Mdr2^−/− and FXR^−/− mice on the development of hepatocellular carcinoma were evaluated.
(§2) Mdr2^−/− and FXR^−/− mice were randomly divided into three experimental groups.
The mice were fed a specific rodent diet or a diet supplemented with INT-747, INT-767, or control diet for 15 months. All mice were housed under pathogen-free conditions in a temperature-controlled room (23° C.) on a 12-hour light/dark cycle and drank water ad libitum. […] After 16 months, the mice were sacrificed and serum, liver and intestine were collected. The total number of hepatic tumors was counted and the diameter of each tumor was measured.
(§3) • Mice (n=4) were fed control diet for 15 months. Group 2: INT-747 • Mice (n=8) were fed control diet supplemented with OCA at a dose of 10 mg/kg for 15 months. Group 3: INT-767 • Mice (n=15) were fed control diet supplemented with INT-767 at a dose of 10 mg/kg for 15 months.

Mdr2^−/− mice = test: Hepatocarcinogenesis in Mdr2^−/− mice (tumors, LW/BW, ALT/AST, serum bile acids)
Protocol: The effects of INT-747, INT-767, and control diet in Mdr2^−/− and FXR^−/− mice on the development of hepatocellular carcinoma were evaluated. INT-747 is a FXR agonist while INT-767 is a dual FXR/TGR5 agonist.
as §2
The mice were fed a specific rodent diet or a diet supplemented with INT-747, INT-767, or control diet for 15 months. […] After 16 months, the mice were sacrificed and serum, liver and intestine were collected. The total number of hepatic tumors was counted and the diameter of each tumor was measured.
as §3

FXR = molecular target: T1, FXR (Homo sapiens, UniProt Q96RI1); test: Potency for FXR (INT-767 versus INT-747); details: greater than INT-747
T1 sequence (Q96RI1 1-486): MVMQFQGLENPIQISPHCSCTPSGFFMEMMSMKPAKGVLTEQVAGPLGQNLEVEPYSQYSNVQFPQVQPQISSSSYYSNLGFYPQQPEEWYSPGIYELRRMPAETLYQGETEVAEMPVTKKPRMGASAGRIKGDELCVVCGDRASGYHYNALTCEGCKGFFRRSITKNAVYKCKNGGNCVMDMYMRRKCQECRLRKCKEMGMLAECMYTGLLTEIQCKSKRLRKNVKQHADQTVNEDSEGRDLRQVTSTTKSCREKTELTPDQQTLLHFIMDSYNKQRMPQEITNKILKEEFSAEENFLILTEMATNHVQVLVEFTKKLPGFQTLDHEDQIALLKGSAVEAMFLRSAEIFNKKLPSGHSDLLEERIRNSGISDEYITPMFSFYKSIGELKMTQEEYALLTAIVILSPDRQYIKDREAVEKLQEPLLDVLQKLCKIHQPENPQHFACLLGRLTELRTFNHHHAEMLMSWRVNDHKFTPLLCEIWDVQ

Row | SMILES | hepatic Bsep induction [1] | ileal Shp gene expression [2] | ileal Fgf15 gene expression [3] | hepatic Cyp7a1 gene expression [4] | liver tumors found (FXR^−/− mice) | liver tumors found (appearance/size) (Mdr2^−/− mice; diet 10 mg/kg for 15 months) | tumors with a diameter larger than 5 mm (Mdr2^−/− mice; diet 10 mg/kg for 15 months) | potency for FXR relative to INT-747 (FXR) | ALT levels (FXR^−/− mice) | AST levels (FXR^−/− mice) | LW/BW ratio (liver weight/body weight) (FXR^−/− mice) | serum bile acid levels (FXR^−/− mice) | serum bile acid levels (Mdr2^−/− mice) | LW/BW ratio (liver weight/body weight) (Mdr2^−/− mice; compared to control and INT-747 treated mice) | hepatocellular carcinoma development (number of hepatic tumors) (Mdr2^−/− mice; diet 10 mg/kg for 15 months, compared to control) | ALT levels (Mdr2^−/− mice; vs control) | AST levels (Mdr2^−/− mice; vs control)
1 | CC[C@H]1[C@@H](O)[C@@H]2[C@H](CC[C@]3(C)[C@@H]([C@H](C)CCC(=O)O)CC[C@@H]23)[C@@]2(C)CC[C@@H](O)C[C@@H]12 [INT-747, 6α-ethyl-3α,7α-dihydroxy-5β-cholan-24-oic acid] | did not promote hepatic Bsep induction | stimulated | stimulated | inhibited | several large liver tumors | clearly identifiable liver tumors | ~80% |  |  |  |  |  |  |  |  |  | 
2 | CC[C@H]1[C@@H](O)[C@@H]2[C@H](CC[C@]3(C)[C@@H]([C@H](C)CCOS(=O)(=O)[O-])CC[C@@H]23)[C@@]2(C)CC[C@@H](O)C[C@@H]12.[Na+] [INT-767, 6α-ethyl-3α,7α,23-trihydroxy-24-nor-5β-cholan-23-sulphate sodium] | induced hepatic Bsep activation | stimulated | stimulated |  | several large liver tumors | minute tumors |  | about 10 fold | no difference | no difference | No difference | no reduction occurred | significantly reduced | significant reduction | clearly prevented hepatocellular carcinoma development | significantly reduced | significantly reduced
3 | CC[C@H]1[C@@H](O)C2C3CC[C@H]([C@H](C)CCOS(=O)(=O)[O-])[C@@]3(C)CCC2[C@@]2(C)CC[C@@H](O)C[C@@H]12.[Na+] (stereo partly drawn) [INT-767, 6α-ethyl-3α,7α,23-trihydroxy-24-nor-5β-cholan-23-sulphate sodium] |  |  |  | inhibited |  |  |  |  |  |  |  |  |  |  |  |  | 

— patent US10369160B2, “Methods of treating cancer” (Intercept Pharmaceuticals, Inc., priority 2016, dated 2019)
